Experimental data from US20030013898A1, “Pericyte protective agent” (Toray Industries, Inc., priority 1998, published 2003).

Columns and labels:
[1] = test system: Pericytes isolated from bovine retina; test: Pericyte protecting action: suppression of pericyte proliferation attributable to AGE; format: cell-based; conditions: FIG. 1
Description: Pericytes were isolated from bovine retina and maintained in Dulbecco's modified Eagle medium containing 20% foetal calf serum. The suppression of pericyte proliferation attributable to AGE was measured by adding 0.25 mg of AGE-BSA (prepared in Reference Example 1) to a culture plate into which 3.0×10^4 cells had been plated, then culturing at 37° C. for 5 days and performing measurements using a Packard Cyto Life. Separately, Beraprost sodium (BPS) was added at a final concentration of 0.1-10 μM prior to AGE addition. As controls, measurements were carried out in the same way for the case when treatment was carried out with AGE-BSA only and for the case where no treatment was carried out. For each group, the tests were carried out 10 times respectively.

RAGE mRNA = RAGE mRNA in pericytes by quantitative reverse transcription-polymerase chain reaction; format: cell-based, bovine; conditions: 1 μM BPS treatment
Description: Pericytes were isolated from bovine retina and maintained in Dulbecco's modified Eagle medium containing 20% foetal calf serum. Next, the quantity of the AGE receptor RAGE mRNA present in the pericytes was analyzed by means of a quantitative reverse transcription-polymerase chain reaction method, in accordance with the technique described in Biochemical and Biophysical Research Communications, Vol. 213, 682-683, 1995.

Compound: CC#CCC(C)[C@H](O)/C=C/[C@@H]1[C@H]2c3cccc(CCCC(=O)O)c3O[C@H]2C[C@H]1O (relative stereo) [BPS, (±)-(1R*,2R*,3aS*,8bS*)-2,3,3a,8b-tetrahydro-2-hydroxy-1-[(E)-(3S*)-3-hydroxy-4-methyl-1-octen-6-ynyl]-1H-cyclopenta[b]benzofuran-5-butyric acid]
- improvement of AGE-induced suppression of pericyte proliferation ([1]; BPS 0.1-10 μM added prior to 0.25 mg AGE-BSA, 3.0×10^4 cells, 37° C., 5 days): improved in a concentration-dependent manner
- concentration at which improvement of suppression of proliferation was significant ([1]; BPS added prior to AGE-BSA, 5 days culture): 1 µM
- expression of RAGE (mRNA) (RAGE mRNA): expression of RAGE was suppressed
